What was measured:
[1] = test system: Mus musculus; assay: Effect on clonic phase of audiogenic seizures in DBA/2 mice at 3.3-200 umol/kg, ip; type: functional; conditions: DBA/2, ip
[2] = test system: Mus musculus; assay: Effect on tonic phase of audiogenic seizures in DBA/2 mice at 3.3-200 umol/kg, ip; type: functional; conditions: DBA/2, ip
[3] = test system: Mus musculus; assay: Effect on locomotion in mice assessed by rotarod test at 3.3-200 umol/kg, ip; type: functional
[4] = test system: Mus musculus; assay: Protective index [PI = TD50/ED50 (from clonic phase of the audiogenic seizures)] in mice at 3.3-200 umol/kg, ip; type: functional
[5] = target: T1, Glutamate receptor ionotropic, AMPA (Rattus norvegicus, UniProt P19490+P19491+P19492+P19493); assay: Ability to inhibit kainate-induced increase of calcium in rat cerebellar granule cells expressing AMPA receptor; type: functional
[6] = target: T1, Glutamate receptor ionotropic, AMPA; assay: Displacement of [3H]CP-526427 from AMPA receptor in rat forebrain membranes; type: cell membranes, Membrane
[7] = target: Glutamate receptor ionotropic, kainate 1 (Rattus norvegicus, UniProt P22756); assay: Ability to inhibit domoic acid-induced increase of calcium in rat HEK293 cells expressing GluR5; type: functional, cell-based
Chain of Glutamate receptor ionotropic, kainate 1 (P22756 whole entry): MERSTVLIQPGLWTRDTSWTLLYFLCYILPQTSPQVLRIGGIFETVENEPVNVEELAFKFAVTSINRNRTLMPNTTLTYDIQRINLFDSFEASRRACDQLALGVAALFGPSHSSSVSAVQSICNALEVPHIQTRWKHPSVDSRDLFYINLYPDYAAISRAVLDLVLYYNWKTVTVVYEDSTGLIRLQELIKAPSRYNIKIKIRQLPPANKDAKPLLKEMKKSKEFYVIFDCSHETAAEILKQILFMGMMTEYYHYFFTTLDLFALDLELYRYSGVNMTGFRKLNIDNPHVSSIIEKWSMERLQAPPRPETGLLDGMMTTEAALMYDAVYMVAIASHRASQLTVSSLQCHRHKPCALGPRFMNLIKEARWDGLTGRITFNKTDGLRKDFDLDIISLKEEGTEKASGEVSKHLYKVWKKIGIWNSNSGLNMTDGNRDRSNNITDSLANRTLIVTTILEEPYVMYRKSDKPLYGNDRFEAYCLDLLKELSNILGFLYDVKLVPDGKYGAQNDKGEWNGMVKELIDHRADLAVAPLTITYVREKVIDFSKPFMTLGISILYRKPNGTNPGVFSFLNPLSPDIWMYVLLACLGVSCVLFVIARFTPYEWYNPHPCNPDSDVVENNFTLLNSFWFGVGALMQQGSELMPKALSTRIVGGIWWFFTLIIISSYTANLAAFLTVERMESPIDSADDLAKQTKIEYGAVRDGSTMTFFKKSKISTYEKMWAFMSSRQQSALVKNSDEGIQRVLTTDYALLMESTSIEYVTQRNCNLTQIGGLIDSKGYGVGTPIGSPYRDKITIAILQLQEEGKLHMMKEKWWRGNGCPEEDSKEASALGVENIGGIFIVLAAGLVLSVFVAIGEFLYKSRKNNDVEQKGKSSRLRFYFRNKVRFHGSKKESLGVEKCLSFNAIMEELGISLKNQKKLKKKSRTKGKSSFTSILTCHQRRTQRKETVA

CNC(=O)N1N=C(c2ccc(N)cc2)c2cc3c(cc2CC1=O)OCCO3
ED50 [1]: 45.5 µmol/kg
ED50 [2]: 32.1 µmol/kg
TD50 [3]: 96.4 µmol/kg
Ratio TD50/ED50 [4]: 2.1
IC50 [5]: 5.4 µM

Cc1cc(C2=NNC(=O)Cc3cc4c(cc32)OCCO4)ccc1N
IC50 [6]: 1.8 µM
ED50 [1]: 48.2 µmol/kg
ED50 [2]: 24.6 µmol/kg
TD50 [3]: 115 µmol/kg
Ratio TD50/ED50 [4]: 2.4

Nc1ccc(C2=NNC(=O)Cc3cc4c(cc32)OCCO4)c(Cl)c1
IC50 [6]: > 20 µM
ED50 [1]: > 100 µmol/kg
ED50 [2]: > 100 µmol/kg

Nc1ccc(C2=NNC(=O)Cc3cc4c(cc32)OCO4)cc1
Ratio TD50/ED50 [4]: 4.5
IC50 [5]: 12 µM

CCNC(=O)N1N=C(c2ccc(N)cc2)c2cc3c(cc2CC1=O)OCO3
IC50 [6]: 12 µM
Ratio TD50/ED50 [4]: 3.8
IC50 [5]: 11 µM

Nc1ccc(C2=NNC(=O)Cc3cc4c(cc32)OCCO4)cc1Cl
IC50 [6]: 2 µM
ED50 [1]: 70.8 µmol/kg
ED50 [2]: 27.2 µmol/kg
TD50 [3]: 99.1 µmol/kg
Ratio TD50/ED50 [4]: 1.4

Nc1ccc(C2=NNC(=O)Cc3cc4c(cc32)OCCO4)cc1
ED50 [1]: 61.3 µmol/kg
ED50 [2]: 44.8 µmol/kg
IC50 [7]: > 10 µM
TD50 [3]: 102 µmol/kg
Ratio TD50/ED50 [4]: 1.7
IC50 [5]: 2.9 µM

CCNC(=O)N1N=C(c2ccc(N)cc2)c2cc3c(cc2CC1=O)OCCO3
IC50 [6]: 9.3 µM
ED50 [1]: 48.1 µmol/kg
ED50 [2]: 41.7 µmol/kg
TD50 [3]: 95.3 µmol/kg
Ratio TD50/ED50 [4]: 2

CNC(=O)N1N=C(c2ccc(N)cc2)c2cc3c(cc2CC1=O)OCO3
Ratio TD50/ED50 [4]: 3.9

CC1=NN=C(c2ccc(N)cc2)c2cc3c(cc2C1)OCO3 [GYKI-52466]
Ratio TD50/ED50 [4]: 2.1

— ChEMBL document CHEMBL1148548, “New 7,8-ethylenedioxy-2,3-benzodiazepines as noncompetitive AMPA receptor antagonists” (Bioorg Med Chem Lett, 2006)
